From ChEMBL document CHEMBL1121811, “Synthesis and biological evaluation of certain 2'-deoxy-beta-D-ribo- and -beta-D-arabinofuranosyl nucleosides of purine-6-carboxamide and 4,8-diaminopyrimido[5,4-d]pyrimidine” (1981)

Assays:
Mus musculus [1] = experiment: Compound was tested for the ability to suppress humoral immune response in mice treated for days -2,-1,and 0 at dose of 100 mg/kg (control = 9.5); format: functional
Mus musculus [2] = experiment: Compound was tested for the ability to suppress skin-graft rejection in mice treated daily from day of graft transfer until rejection at dose of 75 mg/kg (control = 12+/-0.21)
Mus musculus [3] = experiment: Compound was tested for the ability to suppress humoral immune response in mice treated for days 0,+1,and +2 at dose of 100 mg/kg (control = 10.0)
Mus musculus [4] = experiment: Effect of compound on induction of cellular immunity was studied at different dose of 50 mg/kg. (control = 12+/-0.21); format: functional
Mus musculus [5] = experiment: Compound was tested for the ability to suppress skin-graft rejection in mice treated daily from day of graft transfer until rejection at dose of 100 mg/kg (control = 12+/-0.21)
Mus musculus [6] = experiment: Compound was tested for the ability to suppress humoral immune response in mice treated for days -2,-1,and 0 at dose of 25 mg/kg (control = 9.5); format: functional
Mus musculus [7] = experiment: Effect of compound on induction of cellular immunity was studied at different dose of 15 mg/kg (control = 12+/-0.2); format: functional
Mus musculus [8] = experiment: Compound was tested for the ability to suppress humoral immune response in mice treated for days 0,+1,and +2 at dose of 25 mg/kg (control = 7.0); format: functional
Mus musculus [9] = experiment: Compound was tested for the ability to suppress humoral immune response in mice treated for days 0,+1,and +2 at dose of 50 mg/kg (control = 8.9); format: functional
Mus musculus [10] = experiment: Compound was tested for the ability to suppress humoral immune response in mice treated for days -2,-1,and 0 at dose of 100 mg/kg (control = 8.1); format: functional
Mus musculus [11] = experiment: Compound was tested for the ability to suppress humoral immune response in mice treated for days -2,-1,and 0 at dose of 50 mg/kg (control = 8.1); format: functional
Mus musculus [12] = experiment: Compound was tested for the ability to suppress humoral immune response in mice treated for days 0,+1,and +2 at dose of 100 mg/kg (control = 8.9); format: functional
Mus musculus [13] = experiment: Compound was tested for the ability to suppress humoral immune response in mice treated for days 0,+1,and +2 at dose of 25 mg/kg (control = 8.9)
Mus musculus [14] = experiment: Compound was tested for the ability to suppress humoral immune response in mice treated for days 0,+1,and +2 at dose of 180 mg/kg (control = 9.1); format: functional
Mus musculus [15] = experiment: Compound was tested for the ability to suppress humoral immune response in mice treated for days -2,-1,and 0 at dose of 50 mg/kg (control = 10.3); format: functional
Mus musculus [16] = experiment: Compound was tested for the ability to suppress humoral immune response in mice treated for days 0,+1,and +2 at dose of 100 mg/kg (control = 9.0); format: functional
Mus musculus [17] = experiment: Compound was tested for the ability to suppress humoral immune response in mice treated for days -2,-1,and 0 at dose of 100 mg/kg (control = 10.3); format: functional
Mus musculus [18] = experiment: Compound was tested for the ability to suppress humoral immune response in mice treated for days 0,+1,and +2 at dose of 50 mg/kg (control = 6.5); format: functional
Mus musculus [19] = experiment: Compound was tested for the ability to suppress humoral immune response in mice treated for days 0,+1,and +2 at dose of 180 mg/kg (control = 9.0); format: functional
Mus musculus [20] = experiment: Compound was tested for the ability to suppress humoral immune response in mice treated for days 0,+1,and +2 at dose of 100 mg/kg (control = 6.5); format: functional
Mus musculus [21] = experiment: Compound was tested for the ability to suppress humoral immune response in mice treated for days 0,+1,and +2 at dose of 50 mg/kg (control = 9.0); format: functional

`Nc1ncnc2c(N[C@@H]3O[C@H](CO)[C@@H](O)[C@@H]3O)ncnc12` gave a Mean hemagglutination titers (Mus musculus [1]) of 8.7, a mean survival time (Mus musculus [2]) of 13 and a Mean hemagglutination titers (Mus musculus [3]) of 11. The mean survival time (Mus musculus [4]) was 14 and the mean survival time (Mus musculus [5]) was 16.
`Nc1ncnc2c(N[C@@H]3O[C@H](CO)[C@@H](O)[C@H]3O)ncnc12` was tested, and the Mean hemagglutination titers (Mus musculus [6]) was 8.5, the mean survival time (Mus musculus [7]) was 21 and the Mean hemagglutination titers (Mus musculus [8]) was 0.
`Sc1ncnc2nc[nH]c12` [MERCAPTOPURINE ANHYDROUS] gave a Mean hemagglutination titers (Mus musculus [9]) of 7.2, a Mean hemagglutination titers (Mus musculus [10]) of 3.4 and a Mean hemagglutination titers (Mus musculus [11]) of 7.5. The Mean hemagglutination titers (Mus musculus [12]) was 4.1 and the Mean hemagglutination titers (Mus musculus [13]) was 7.5.
`Nc1ccn([C@@H]2O[C@H](CO)[C@@H](O)[C@@H]2O)c(=O)n1` [CYTARABINE] gave a Mean hemagglutination titers (Mus musculus [8]) of 3.4.
For `OC[C@H]1O[C@@H](n2cnc3c(S)ncnc32)[C@H](O)[C@@H]1O` [THIOINOSINE], the Mean hemagglutination titers (Mus musculus [14]) was 8.7, the Mean hemagglutination titers (Mus musculus [10]) was 8.4 and the Mean hemagglutination titers (Mus musculus [15]) was 8.3. The Mean hemagglutination titers (Mus musculus [16]) was 7.4, the Mean hemagglutination titers (Mus musculus [11]) was 8.5 and the Mean hemagglutination titers (Mus musculus [17]) was 8.3. The Mean hemagglutination titers (Mus musculus [18]) was 7.2, the Mean hemagglutination titers (Mus musculus [19]) was 6.4 and the Mean hemagglutination titers (Mus musculus [20]) was 7.2. The Mean hemagglutination titers (Mus musculus [21]) was 9.1.
